Measured values reported in patent publication US20230357320A1, “HELICAL STAPLED PEPTIDES AND USES THEREOF” (FOG PHARMACEUTICALS, INC., priority 2020, published 2023).
Starred links: 1 amine or outer side, 2 acyl side, 3 side chain; linkers in the order of their positions; H or OH if unused. Positions of bridges follow the written chain, without caps; N, C: chain ends. Non-standard residues stand in square brackets, D forms with d. Residues, ends and D or L forms follow the SMILES beside them. X1 = O=C([C@]1(CC=[*:3])CCCN1[*:1])[*:2]; αAllylPro = C=CC[C@@]1(C(=O)O)CCCN1; S5 = C=CCCC[C@](C)(N)C(=O)O

Legend:
in vitro = experiment: in vitro; set-up: dose or concentration left out as unconfirmed; conditions: PAMPA, pH 7.4, PAMPA Pe
[1] = for % Retention: PAMPA
[2] = CHI Log D measurement (chromatographic hydrophobicity index)
[3] = reverse-phase HPLC, Phenomenex Gemini C-18 column, pH 7.4
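For % Retention in this document: Phospholipid-membrane PAMPA, donor and acceptor in DPBS pH 7.4 with 5% DMSO, 37 °C for 5 h, compound in each well quantified by reverse-phase HPLC-MS.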
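For PAMPA Pe (text) in this document: Phospholipid-membrane PAMPA, donor and acceptor in DPBS pH 7.4 with 5% DMSO, 37 °C for 5 h, compound in each well quantified by reverse-phase HPLC-MS.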
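For Papp in this document: Phospholipid-membrane PAMPA, donor and acceptor in DPBS pH 7.4 with 5% DMSO, 37 °C for 5 h, compound in each well quantified by reverse-phase HPLC-MS.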

Row | Structure (SMILES) | Papp at 5 h (in vitro) [×10⁻⁶ cm/s] | % Retention [1] [%] | chromatographic logD ([2]; pH 7.4) | logD ([2]; pH 7.4) | CHI Log D compared to the parent ProLock stapled peptide ([2]; result in words) | chromatographic logD [2, 3] | PAMPA Pe (text) [1] [×10⁻⁶ cm/s]
1 | CNC(=O)[C@H](CC(=O)O)NC(=O)[C@H](CC(=O)O)NC(=O)[C@H](CC(C)C)NC(=O)[C@H](CC(C)C)NC(=O)[C@H](Cc1ccc(O)cc1)NC(=O)[C@]1(C)CCCC=CC[C@]2(CCCN2)C(=O)N[C@@H](CC(C)C)C(=O)N[C@@H](CC(C)C)C(=O)N1 (single isomer, unassigned) [PLL5-2 variant 1, H-PL3-Leu-Leu-S5-Tyr-Leu-Leu-Asp-Asp-NHMe] | 0.4 ± 0.1 | 69 ± 2 | 1.4 |  |  |  | 
2 | CNC(=O)[C@H](CC(=O)O)NC(=O)[C@H](CC(=O)O)NC(=O)[C@H](CC(C)C)NC(=O)[C@H](CC(C)C)NC(=O)[C@H](Cc1ccc(O)cc1)NC(=O)[C@]1(C)CCCC=CC[C@]2(CCCN2C(C)=O)C(=O)O[C@@H](CC(C)C)C(=O)N[C@@H](CC(C)C)C(=O)N1 (single isomer, unassigned) [PLL5-2 variant 2, Ac-PL3-Lec-Leu-S5-Tyr-Leu-Leu-Asp-Asp-NHMe] | ≤ 0.1 | 47 ± 6 |  | 1.9 |  |  | 
3 | CNC(=O)[C@H](CC(=O)O)NC(=O)[C@H](CCC(N)=O)NC(=O)[C@H](CC(C)C)NC(=O)[C@H](CC(C)C)NC(=O)[C@H](Cc1ccc(O)cc1)NC(=O)[C@]1(C)CCCC=CC[C@]2(CCCN2)C(=O)N[C@@H](CC2CC2)C(=O)N[C@@H](CC(C)C)C(=O)N1 (single isomer, unassigned) [PLL7-7 variant 1, H-PL3-Cpa-Leu-S5-Tyr-Leu-Leu-Gln-Asp-NHMe] | 0.4 ± 0.1 | 84 ± 2 | 1.8 |  |  |  | 
4 | CNC(=O)[C@H](CC(=O)O)NC(=O)[C@H](CCC(N)=O)NC(=O)[C@H](CC(C)C)NC(=O)[C@H](CC(C)C)NC(=O)[C@H](Cc1ccc(O)cc1)NC(=O)[C@]1(C)CCCC=CC[C@]2(CCCN2C(C)=O)C(=O)O[C@@H](CC(C)C)C(=O)N[C@@H](CC(C)C)C(=O)N1 (single isomer, unassigned) [PLL7-7 variant 2, Ac-PL3-Lec-Leu-S5-Tyr-Leu-Leu-Gln-Asp-NHMe] | ≤ 0.1 | 64 ± 1 | 2.6 |  |  |  | 
5 | CC(=O)N1CCC[C@]12CC=CCCC[C@@](C)(C(=O)N[C@@H](Cc1ccc(O)cc1)C(=O)N[C@@H](CC(C)C)C(=O)N[C@@H](CC(C)C)C(=O)N[C@@H](CCC(N)=O)C(=O)N[C@@H](CC(=O)O)C(N)=O)NC(=O)[C@H](CC(C)C)NC(=O)[C@H](CC1CC1)NC2=O (single isomer, unassigned) [PLL7-7 variant 3, Ac-PL3-Cpa-Leu-S5-Tyr-Leu-Leu-Gln-Asp-NH2] | 0.5 ± 0.1 | 75 ± 1 | 1.8 |  |  |  | 
6 | CNC(=O)[C@H](CC(=O)O)NC(=O)[C@H](Cc1c[nH]cn1)NC(=O)[C@H](CC(C)C)NC(=O)[C@H](CC(C)C)NC(=O)[C@H](CCCNC(=N)N)NC(=O)[C@]1(C)CCCC=CC[C@]2(CCCN2)C(=O)N[C@@H](CC(C)C)C(=O)N[C@@H](CC(C)C)C(=O)N1 (single isomer, unassigned) [PLL7-9 variant 1, H-PL3-Leu-Leu-S5-Arg-Leu-Leu-His-Asp-NHMe] | ≤ 0.1 | 86 ± 2 | 3.7 |  | surprisingly high |  | 
7 | CNC(=O)[C@H](CC(=O)O)NC(=O)[C@H](Cc1c[nH]cn1)NC(=O)[C@H](CC(C)C)NC(=O)[C@H](CC(C)C)NC(=O)[C@H](CCCNC(=N)N)NC(=O)[C@]1(C)CCCC=CC[C@]2(CCCN2C(C)=O)C(=O)O[C@@H](CC(C)C)C(=O)N[C@@H](CC(C)C)C(=O)N1 (single isomer, unassigned) [PLL7-9 variant 2, Ac-PL3-Lec-Leu-S5-Arg-Leu-Leu-His-Asp-NHMe] | 0.3 ± 0.1 | 82 ± 2 | 2.4 |  |  |  | 
8 | CC(=O)N1CCC[C@]12CC=CCCC[C@@](C)(C(=O)N[C@@H](CCCNC(=N)N)C(=O)N[C@@H](CC(C)C)C(=O)N[C@@H](CC(C)C)C(=O)N[C@@H](Cc1c[nH]cn1)C(=O)N[C@@H](CC(=O)O)C(N)=O)NC(=O)[C@H](CC(C)C)NC(=O)[C@H](CC(C)C)NC2=O (single isomer, unassigned) [PLL7-9 variant 3, Ac-PL3-Leu-Leu-S5-Arg-Leu-Leu-His-Asp-NH2] | 0.5 ± 0.1 | 98 ± 10 | 1.9 |  |  |  | 
9 | CNC(=O)[C@H](CC(N)=O)NC(=O)[C@H](CC(N)=O)NC(=O)[C@H](CC(C)C)NC(=O)[C@H](CC(C)C)NC(=O)[C@H](CC1CC1)NC(=O)[C@]1(C)CCCC=CC[C@]2(CCCN2C(C)=O)C(=O)N[C@@H](C)C(=O)N[C@@H](CC(C)C)C(=O)N1 (single isomer, unassigned) [PLL7-11, Ac-PL3-Ala-Leu-S5-Cpa-Leu-Leu-Asn-Asn-NHMe] | 0.9 ± 0.2 | 103 ± 2 | 2.6 |  |  |  | 
10 | CC(=O)N1CCC[C@]12CC=CCCC[C@@](C)(C(=O)N[C@@H](Cc1c[nH]cn1)C(=O)N[C@@H](CC(C)C)C(=O)N[C@@H](CC(C)C)C(=O)N[C@@H](CC(N)=O)C(N)=O)NC(=O)[C@H](CC(C)C)NC(=O)[C@H](C)NC2=O (single isomer, unassigned) [PLL7-20 variant 3, Ac-PL3-Ala-Leu-S5-His-Leu-Leu-Asn-NH2] | 0.5 ± 0.2 | 76 ± 10 | 2.1 |  |  |  | 
11 | CNC(=O)[C@H](Cc1ccc(O)cc1)NC(=O)[C@@H](NC(=O)[C@H](CC(C)C)NC(=O)[C@H](CC(C)C)NC(=O)[C@H](CC(N)=O)NC(=O)[C@]1(C)CCCC=CCCC[C@](C)(NC(C)=O)C(=O)N[C@@H](C)C(=O)N[C@@H](CCCCN)C(=O)N[C@@H](CC(C)C)C(=O)N1)[C@@H](C)O [PLL4-5 variant 4, Ac-S5-Ala-Lys-Leu-S5-Asn-Leu-Leu-Thr-Tyr-NHMe] (Ac-[S5]AKL[S5]NLLTY-NHMe; staple 1-5) | ≤ 0.1 | 79 ± 3 | 2.2 |  |  |  | 
12 | C=CCCC[C@](C)(NC(=O)[C@H](CC(C)C)NC(=O)[C@H](CCCCN)NC(=O)[C@]1(CC=C)CCCN1C(C)=O)C(=O)N[C@@H](CC(N)=O)C(=O)N[C@@H](CC(C)C)C(=O)N[C@@H](CC(C)C)C(=O)N[C@H](C(=O)N[C@@H](Cc1ccc(O)cc1)C(=O)NC)[C@@H](C)O [PLL4-5 variant 5, Ac-PL3-Lys-Leu-S5-Asn-Leu-Leu-Thr-Tyr-NHMe] (Ac-[αAllylPro]KL[S5]NLLTY-NHMe) | ≤ 0.1 | 73 ± 4 | 2.3 |  |  |  | 
13 | CNC(=O)[C@H](CC(=O)O)NC(=O)[C@H](CC(C)C)NC(=O)[C@H](CC(C)C)NC(=O)[C@H](Cc1ccc(O)cc1)NC(=O)[C@]1(C)CCCC=CCCC[C@](C)(NC(C)=O)C(=O)N[C@@H](C)C(=O)N[C@@H](CC(C)C)C(=O)N[C@@H](CC(C)C)C(=O)N1 [PLL4-10 variant 4, Ac-S5-Ala-Leu-Leu-S5-Tyr-Leu-Leu-Asp-NHMe] (Ac-[S5]ALL[S5]YLLD-NHMe; staple 1-5) | ≤ 0.1 | 74 ± 6 | 2.9 |  |  |  | 
14 | C=CCCC[C@](C)(NC(=O)[C@H](CC(C)C)NC(=O)[C@H](CC(C)C)NC(=O)[C@]1(CC=C)CCCN1C(C)=O)C(=O)N[C@@H](Cc1ccc(O)cc1)C(=O)N[C@@H](CC(C)C)C(=O)N[C@@H](CC(C)C)C(=O)N[C@@H](CC(=O)O)C(=O)NC [PLL4-10 variant 5, Ac-PL3-Leu-Leu-S5-Tyr-Leu-Leu-Asp-NHMe] (Ac-[αAllylPro]LL[S5]YLLD-NHMe) | 0.2 ± 0.1 | 70 ± 2 | 2.8 |  |  |  | 
15 | CNC(=O)[C@H](Cc1ccc(O)cc1)NC(=O)[C@H](CC(=O)O)NC(=O)[C@H](CC(C)C)NC(=O)[C@H](CC(C)C)NC(=O)[C@H](Cc1ccc(O)cc1)NC(=O)[C@]1(C)CCCC=CC[C@]2(CCCN2C(C)=O)C(=O)N[C@@H](CC(C)C)C(=O)N[C@@H](CC(C)C)C(=O)N1 [PLL5-1, Ac-PL3-Leu-Leu-S5-Tyr-Leu-Leu-Asp-Tyr-NHMe] (Ac-[X1]LL[S5]YLLDY-NHMe; staple 1-4) | ≤ 0.1 | 36 ± 1 |  |  |  | 2.4 | 
16 | C=CCCC[C@](C)(NC(=O)[C@H](CC(C)C)NC(=O)[C@H](CC(C)C)NC(=O)[C@]1(CC=C)CCCN1C(C)=O)C(=O)N[C@@H](Cc1ccc(O)cc1)C(=O)N[C@@H](CC(C)C)C(=O)N[C@@H](CC(C)C)C(=O)N[C@@H](CC(=O)O)C(=O)N[C@@H](CC(=O)O)C(=O)NC [PLL5-2 variant 5, Ac-PL3-Leu-Leu-S5-Tyr-Leu-Leu-Asp-Asp-NHMe] (Ac-[αAllylPro]LL[S5]YLLDD-NHMe) | 1.7 ± 0.4 | 90 ± 3 | 1.8 |  |  |  | 1.7
17 | CNC(=O)[C@H](Cc1ccc(O)cc1)NC(=O)[C@H](CCC(N)=O)NC(=O)[C@H](CC(C)C)NC(=O)[C@H](CC(C)C)NC(=O)[C@H](Cc1ccc(O)cc1)NC(=O)[C@]1(C)CCCC=CC[C@]2(CCCN2C(C)=O)C(=O)N[C@@H](CC(C)C)C(=O)N[C@@H](CC(C)C)C(=O)N1 [PLL5-3, Ac-PL3-Leu-Leu-S5-Tyr-Leu-Leu-Gln-Tyr-NHMe] (Ac-[X1]LL[S5]YLLQY-NHMe; staple 1-4) | ≤ 0.1 | 83 ± 1 |  |  |  | 3.5 | 
